From ChEMBL document CHEMBL1201862, “PubChem BioAssay data set” (2004)
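How tested: cells in 96-well plates exposed to compound for 48 hours at five concentrations. GI50 = concentration required for 50% inhibition of growth.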 Calls of active or inactive are those of the source. Cut-off read from the data, not from the text of the source: active = GI50 up to about 1.1 µM and inactive = higher.

Columns and labels:
Experiment in all cases: NCI-60 cell line screen, 48 h
SK-MEL-2 = tested on: SK-MEL-2
UACC-62 = tested on: UACC-62
Hs-578T = tested on: Hs-578T
OVCAR-3 = tested on: OVCAR-3
LOX IMVI = tested on: LOX IMVI
MDA-MB-435 = tested on: MDA-MB-435
DU-145 = tested on: DU-145
SR = tested on: SR
CAKI-1 = tested on: CAKI-1
MDA-MB-231 = tested on: MDA-MB-231
NCI-H226 = tested on: NCI-H226
RXF 393 = tested on: RXF 393
PC-3 = tested on: PC-3
MCF7 = tested on: MCF7
A498 = tested on: A498
NCI-H522 = tested on: NCI-H522
XF498 = tested on: XF498
SNB-78 = tested on: SNB-78
DLD-1 = tested on: DLD-1
KM-20L2 = tested on: KM-20L2

Row | Structure (SMILES) | GI50 (SK-MEL-2) | GI50 (UACC-62) | GI50 (Hs-578T) | GI50 (OVCAR-3) | GI50 (LOX IMVI) | GI50 (MDA-MB-435) | GI50 (DU-145) | GI50 (SR) | GI50 (CAKI-1) | GI50 (MDA-MB-231) | GI50 (NCI-H226) | GI50 (RXF 393) | GI50 (PC-3) | GI50 (MCF7) | GI50 (A498) | GI50 (NCI-H522) | GI50 (XF498) | GI50 (SNB-78) | GI50 (DLD-1) | GI50 (KM-20L2)
1 | Brc1ccc2c(c1)[C@H]1CCc3c([nH]c4ccccc34)[C@H]1N2 | 16.6 µM (inactive) | 11.5 µM (inactive) | 25.4 µM (inactive) | 10.6 µM (inactive) | 4.38 µM (inactive) | 13.4 µM (inactive) | 12.9 µM (inactive) | 0.889 µM (active) | 10.2 µM (inactive) | 1.6 µM (inactive) | 12.1 µM (inactive) | 12 µM (inactive) | 5.9 µM (inactive) | 3.42 µM (inactive) | – | – | – | – | – | –
2 | COC(=O)/C=C\n1ncc(=O)[nH]c1=O | > 100 µM (inactive) | – | > 100 µM (inactive) | > 100 µM (inactive) | – | 99.5 µM (inactive) | > 100 µM (inactive) | > 10 µM (inactive) | > 100 µM (inactive) | > 100 µM (inactive) | > 100 µM (inactive) | – | > 100 µM (inactive) | – | > 100 µM (inactive) | 52.1 µM (inactive) | – | – | – | –
3 | CC(=O)Nc1ccc(Sc2nnc(NC(C)=O)s2)cc1 | – | – | > 100 µM (inactive) | – | – | > 100 µM (inactive) | – | > 100 µM (inactive) | – | > 100 µM (inactive) | – | – | > 100 µM (inactive) | > 100 µM (inactive) | – | > 100 µM (inactive) | – | – | – | –
4 | CN(C)CCCNC(=O)N/N=C\c1cccc2ccccc12 | – | > 10 µM (inactive) | > 10 µM (inactive) | – | > 10 µM (inactive) | – | > 10 µM (inactive) | > 10 µM (inactive) | – | > 10 µM (inactive) | – | > 10 µM (inactive) | > 10 µM (inactive) | > 10 µM (inactive) | > 10 µM (inactive) | > 10 µM (inactive) | – | – | – | –
5 | CN(CCO)/N=N/c1[nH]cnc1C(N)=O | 22.5 µM (inactive) | 83.8 µM (inactive) | – | > 100 µM (inactive) | 26.2 µM (inactive) | – | – | 39.7 µM (inactive) | – | – | > 100 µM (inactive) | > 100 µM (inactive) | – | – | > 100 µM (inactive) | > 100 µM (inactive) | 82.2 µM (inactive) | > 100 µM (inactive) | > 100 µM (inactive) | > 100 µM (inactive)
6 | CN(C)CCNC(=O)c1cccc2c(=O)c3ccccc3oc12 | 35.9 µM (inactive) | 32.2 µM (inactive) | – | 37.8 µM (inactive) | 20.7 µM (inactive) | – | – | – | – | – | 25.2 µM (inactive) | 43.1 µM (inactive) | – | 26.7 µM (inactive) | 21.1 µM (inactive) | – | 31.3 µM (inactive) | 37.1 µM (inactive) | 29.6 µM (inactive) | 34.9 µM (inactive)
7 | COc1cc(C2c3cc4c(cc3[C@@H](Nc3ccccc3)C3COC(=O)[C@H]23)OCO4)cc(OC)c1O (stereo partly drawn) | 2.79 µM (inactive) | 0.388 µM (active) | – | 2.48 µM (inactive) | 0.414 µM (active) | – | – | – | 0.134 µM (active) | – | 0.28 µM (active) | 1.73 µM (inactive) | – | 0.0715 µM (active) | 0.221 µM (active) | 1.24 µM (inactive) | 1.03 µM (active) | 2.37 µM (inactive) | 1.66 µM (inactive) | 2.1 µM (inactive)
